Source: PMC5913127 (Scientific Reports, 2018)

Legend:
aducanumab = assay: ELISA of aducanumab on plates coated with truncated Aβ peptides; assay type: binding, human; details: for EC50: aducanumab on peptide coated or captured at 5 μg/mL (multivalent effects), antibody from 100 nM, 2 h room temperature, read-out: Binding activity (EC50); for Fold reduction (relative to Aβ1-42): reduction of aducanumab binding affinity, peptide 5 μg/mL
Description: For N-terminally truncated Aβ peptides, untagged peptides were used. For ELISA, 96-well microplates were coated with 5 μg/mL peptide in Coating Buffer (15 mM Na2CO3, 35 mM NaHCO3, pH 9.6) overnight at 4 °C. Plates were washed and non-specific binding sites were blocked with 2% BSA in PBS for 1 h at 25 °C. Serially diluted antibody starting from 100 nM in Assay Buffer (2% BSA in PBS) was added, and the plates were incubated for 2 h at room temperature. Binding was determined by incubation with an HRP-conjugated goat anti-human polyclonal antibody (Jackson ImmunoResearch) followed by measurement of HRP activity using Ultra TMB ELISA Colorimetric Substrate Solution (Thermo Fisher Scientific). For C-terminally truncated Aβ peptides, biotin-conjugated peptides were used. The biotin was attached synthetically to the C terminus of the protein by incorporation of a non-native lysine residue. For ELISA, biotin-conjugated peptides were incubated for 1 h at room temperature, at a concentration of 5 μg/mL in Assay Buffer, using plates that were pre-coated with neutravidin (Thermo Fisher Scientific, Reacti-Bind plates). Plates were washed, antibodies diluted serially in Assay Buffer were added, and binding was measured as described above.

Aβ (Monomer, Aggregate) = details: A = aggregate, M = monomer; ref [9]–[19],[54] as given per antibody in column Ref. of Table 1; cited from earlier work

## 8–42: untagged N-terminally truncated Aβ peptide
aducanumab
  EC50: 0.15 µM
  Fold reduction (relative to Aβ1-42): 400 fold

## 5–42: untagged N-terminally truncated Aβ peptide
aducanumab
  EC50: 0.036 µM
  Fold reduction (relative to Aβ1-42): 96 fold
aducanumab; listed as Aβ5-42
  Fold reduction (relative to Aβ1-42): > 40 fold

## 6–42: untagged N-terminally truncated Aβ peptide
aducanumab
  EC50: 0.14 µM
  Fold reduction (relative to Aβ1-42): 390 fold

## solanezumab: anti-Aβ clinical candidate antibody; mouse analog m266
Aβ (Monomer, Aggregate)
  Aβ selectivity (Monomer, Aggregate): M ≫ A
